Source: paper PMC5943271, “Biosynthetic pathway for furanosteroid demethoxyviridin and identification of an unusual pregnane side-chain cleavage” (Nature Communications, 2018)
Read-outs that look alike come from different tables or passages of the source.

Columns and labels:
[1] = biological target: PI3K gamma kinase (Homo sapiens, UniProt P48736); assay: In vitro PI3K gamma kinase assay (PI3-Kinase (human) HTRF Assay kit); type: biochemical; details: for IC50: PI3K gamma, 10 μM PIP2, 10 μM ATP, room temperature 1 h, HTRF, two replicates, read-out: IC50 value, PI3K inhibitory activity
Procedure: The in vitro PI3K gamma kinase assay was carried out using a PI3-Kinase (human) HTRF^TM Assay kit (Millipore, USA) according to the manufacturer’s protocol. Briefly, the PI3K gamma kinase was incubated with 10 μM sample (tested compounds) in the reaction buffer containing 10 μM PIP2 in the wells of a 384-well opaque black plate (PerkinElmer, USA) at room temperature. Kinase reactions were initiated by adding 10 μM ATP and incubating the plate at room temperature for 1 h. The reactions were quenched by adding 5 μL of Stop Solution (containing EDTA and biotin-PIP3), and then the detection buffer (containing the Europium-labeled anti-GST antibody, the GST-tagged receptor of the phosphoinositide (GRP1) PH domain, and streptavidin–APC) was added to each well. Following 2 h incubation in the dark, the HTRF signal was measured with a 2104 EnVision® Multilabel Reader (PerkinElmer, USA) in the time-resolved fluorescence mode, set for excitation at 320 nm and dual emission detection at 615 nm (Eu) and 665 nm (APC). The emission ratio (ER) of 665 nm emission signal to 615 nm emission signal was then calculated and the inhibition ratio of a certain sample on PI3K was calculated according to the following formula: PI3K inhibition (%) = (ERsample − ER0%)/(ER100% − ER0%) × 100%. ER0% means 0% inhibition, which was calculated from the reaction of PI3K, PIP2, and ATP in the absence of sample.

[2] = system: MCF-7 cells; assay: Cytotoxicity assay (CCK-8) against breast cancer cell line MCF-7; type: cell-based, human; details: MCF-7, 40 μM, 48 h
Procedure: (§1) The human breast cancer MCF-7 cell line (ATCC HTB-22) was used in the cytotoxicity assay. The cell line was cultured in DMEM (Gibco, Life Technologies, USA), supplemented with 10% fetal bovine serum (Gibco, Life Technologies, USA), in a 5% CO2 atmosphere at 37 °C. […] After a treatment with 40 μM of each compound (Dissolved with DMSO) for 48 h, the CCK-8 solution (10 μL) was added to each well and incubated for 2 h at 37 °C. The absorbance (Ab) of samples was detected at 450 nm using a microtiter plate reader (TriStar LB941, Berthold Technologies, Germany).

[3] = parameters: method as in PMID 19523825; details: cited from earlier work
[4] = Cytotoxicity assay (CCK-8) against breast cancer cell line MCF-7; type: cell-based, human; details: human, MCF-7 breast cancer cells (ATCC HTB-22), MCF-7, 48 h
Procedure: as §1

PI3K gamma kinase, sequence (P48736 whole entry): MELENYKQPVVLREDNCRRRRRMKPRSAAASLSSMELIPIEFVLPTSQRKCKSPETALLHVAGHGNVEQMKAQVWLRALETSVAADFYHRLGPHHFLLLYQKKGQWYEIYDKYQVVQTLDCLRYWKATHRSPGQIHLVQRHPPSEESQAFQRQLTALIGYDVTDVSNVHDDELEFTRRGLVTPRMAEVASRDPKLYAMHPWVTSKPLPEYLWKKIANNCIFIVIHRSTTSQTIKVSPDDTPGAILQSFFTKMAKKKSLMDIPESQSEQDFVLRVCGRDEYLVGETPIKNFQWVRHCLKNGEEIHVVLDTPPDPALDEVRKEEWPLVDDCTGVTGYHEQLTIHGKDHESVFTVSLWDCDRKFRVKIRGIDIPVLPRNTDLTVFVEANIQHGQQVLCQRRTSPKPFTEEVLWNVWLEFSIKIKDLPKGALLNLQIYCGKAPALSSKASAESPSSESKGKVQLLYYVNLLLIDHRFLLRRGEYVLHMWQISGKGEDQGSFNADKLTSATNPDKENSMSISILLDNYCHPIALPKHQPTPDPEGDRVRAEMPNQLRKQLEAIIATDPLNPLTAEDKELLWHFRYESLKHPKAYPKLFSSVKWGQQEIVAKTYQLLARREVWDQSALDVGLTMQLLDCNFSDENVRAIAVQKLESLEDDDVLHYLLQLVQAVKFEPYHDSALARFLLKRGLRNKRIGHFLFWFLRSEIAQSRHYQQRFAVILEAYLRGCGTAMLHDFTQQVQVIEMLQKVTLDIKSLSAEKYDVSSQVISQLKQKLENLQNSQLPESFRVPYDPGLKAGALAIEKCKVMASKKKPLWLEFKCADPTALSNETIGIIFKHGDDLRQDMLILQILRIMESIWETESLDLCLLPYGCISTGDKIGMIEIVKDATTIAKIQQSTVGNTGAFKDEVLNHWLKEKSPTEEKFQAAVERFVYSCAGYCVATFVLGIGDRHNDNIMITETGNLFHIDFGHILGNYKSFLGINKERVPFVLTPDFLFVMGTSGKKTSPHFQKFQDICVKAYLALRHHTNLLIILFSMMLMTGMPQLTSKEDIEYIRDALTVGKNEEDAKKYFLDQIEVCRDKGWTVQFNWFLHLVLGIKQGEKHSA

Row | Compound | melting point [°C] | IC50 [1] [nM] | other results
1 | CC(=O)[C@H]1CC[C@H]2C3=C(CC[C@]12C)[C@@]1(C)CC[C@H](O)C2=C1[C@@](O)(OC2)C3=O | 218.2 to 221.7 | – | –
2 | C[C@]12CC[C@H](O)c3coc(c31)C(=O)C1=C2C=C[C@]2(C)C(=O)CC[C@@H]12 | 236.4 to 238.7 | – | –
3 | C[C@]12CCC3=C(C(=O)c4occ5c4[C@]3(C)CC[C@@H]5O)[C@@H]1CC[C@@H]2O | 187.1 to 189.6 | – | –
4 | C[C@@]12c3ccc4c(c3C(=O)c3occ(c31)C(=O)C[C@H]2O)CCC4=O [Compound 1, demethoxyviridin] | – | 6.6 | cytotoxicity against MCF-7 (in words) [2]: moderate cytotoxicity; stability in PBS and culture media (in words) [3]: instability
5 | C[C@@]12c3ccc4c(c3C(=O)c3occ(c31)[C@@H](O)C[C@H]2O)CCC4=O [Compound 2, demethoxyviridiol] | – | 1070 | IC50 at 48 h ([4]; three replicates, read-out: IC50 value, cytotoxicity against MCF-7 (Supplementary Figure 9b)): 37300 nM
6 | C[C@]12CCC(=O)c3coc(c31)C(=O)c1c2ccc2c1CCC2=O [Compound 3, dehydroxydemethoxyviridin] | – | 167 | –
7 | C[C@]12CCC3=C(C(=O)c4occ5c4[C@]3(C)CCC5=O)[C@@H]1CC[C@@H]2O [Compound 7, (6bR,9S,9aS,11bR)-9-hydroxy-9a,11b-dimethyl-1,2,6b,7,8,9,9a,10,11,11b-decahydrocyclopenta[7,8]phenanthro[10,1-bc]furan-3,6-dione] | – | 42.7 | IC50 at 48 h ([4]; read-out: IC50 value, cytotoxicity against MCF-7): 15000 nM
8 | CC(=O)O[C@H]1CC[C@H]2C3=C(CC[C@]12C)[C@@]1(C)CC[C@H](O)c2coc(c21)C3=O [Compound 9, (3S,6bR,9S,9aS,11bR)-3-hydroxy-9a,11b-dimethyl-6-oxo-1,2,3,6,6b,7,8,9,9a,10,11,11b-dodecahydrocyclopenta[7,8]phenanthro[10,1-bc]furan-9-yl acetate] | – | – | inhibitory effect on PI3K (in words) ([1]; 10 μM sample, Fig. 8a): abolishes the activity
9 | CC(=O)[C@H]1CC[C@H]2C3=C(CC[C@]12C)[C@@]1(C)CCC(=O)c2coc(c21)C3=O [Compound 10, virone] | – | 2250 | –
